Laboratory results: the supplement of paper PMC10307832

Columns and labels:
Assay in all cases: relative viability (nuclei count vs DMSO), 5 days (fraction); higher = more cells survive
ABC-1 = system: ABC-1
In short: (§1)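 Nuclei were stained with Hoechst during a one-step fixation (final 0.05% Triton X-100, 1% formaldehyde, 1 ug/ml Hoechst) carried out 5 days after dosing, then counted on 4× images. The cells, lung cancer lines in 1536-well plates, had been dosed by pin tool the day after seeding with one drug alone or a fixed anchor-drug dose plus five library-drug doses (not always all listed) in √10 steps. Relative viability is the nuclei count in treated wells divided by that in vehicle wells, and each value is the median of duplicate plates.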

COR-L23 = system: COR-L23
In short: as §1

EPLC-272H = system: EPLC-272H
In short: as §1

HARA = system: HARA
In short: as §1

HCC-15 = system: HCC-15
In short: as §1

HCC-78 = system: HCC-78
In short: as §1

LC-2-ad = system: LC-2-ad
In short: as §1

LU99A = system: LU99A
In short: as §1

NCI-H1651 = system: NCI-H1651
In short: as §1

NCI-H1915 = system: NCI-H1915
In short: as §1

NCI-H1993 = system: NCI-H1993
In short: as §1

NCI-H2009 = system: NCI-H2009
In short: as §1

NCI-H2085 = system: NCI-H2085
In short: as §1

NCI-H2126 = system: NCI-H2126
In short: as §1

NCI-H2347 = system: NCI-H2347
In short: as §1

NCI-H460 = system: NCI-H460
In short: as §1

NCI-H650 = system: NCI-H650
In short: as §1

NCI-H838 = system: NCI-H838
In short: as §1

PC-14 = system: PC-14
In short: as §1

SW 1573 = system: SW 1573
In short: as §1

UMC-11 = system: UMC-11
In short: as §1

Clc1ccc(Nc2nnc(Cc3ccncc3)c3ccccc23)cc1 [Vatalanib] + CC(C)C[C@H](NC(=O)[C@H](Cc1ccccc1)NC(=O)c1cnccn1)B(O)O [Bortezomib] (partner 0.002 µM)
relative viability (ABC-1; first compound 0.04 µM): 0.334
relative viability (ABC-1; first compound 0.1265 µM): 0.243
relative viability (ABC-1; first compound 0.4 µM): 0.348
relative viability (ABC-1; first compound 1.265 µM): 0.357
relative viability (ABC-1; first compound 4 µM): 0.351
relative viability (COR-L23; first compound 0.04 µM): 1.1
relative viability (COR-L23; first compound 0.1265 µM): 0.934
relative viability (COR-L23; first compound 0.4 µM): 1.01
relative viability (COR-L23; first compound 1.265 µM): 1.01
relative viability (COR-L23; first compound 4 µM): 0.942
relative viability (EPLC-272H; first compound 0.04 µM): 1.08
relative viability (EPLC-272H; first compound 0.1265 µM): 0.93
relative viability (EPLC-272H; first compound 0.4 µM): 0.843
relative viability (EPLC-272H; first compound 1.265 µM): 0.971
relative viability (EPLC-272H; first compound 4 µM): 0.982
relative viability (HARA; first compound 0.04 µM): 0.71
relative viability (HARA; first compound 0.1265 µM): 0.953
relative viability (HARA; first compound 0.4 µM): 1.23
relative viability (HARA; first compound 1.265 µM): 1.12
relative viability (HARA; first compound 4 µM): 1.06
relative viability (HCC-15; first compound 0.04 µM): 1.15
relative viability (HCC-15; first compound 0.1265 µM): 1.03
relative viability (HCC-15; first compound 0.4 µM): 1.03
relative viability (HCC-15; first compound 1.265 µM): 0.978
relative viability (HCC-15; first compound 4 µM): 1.04
relative viability (HCC-78; first compound 0.04 µM): 0.391
relative viability (HCC-78; first compound 0.1265 µM): 0.493
relative viability (HCC-78; first compound 0.4 µM): 0.474
relative viability (HCC-78; first compound 1.265 µM): 0.495
relative viability (HCC-78; first compound 4 µM): 0.571
relative viability (LC-2-ad; first compound 0.04 µM): 0.987
relative viability (LC-2-ad; first compound 0.1265 µM): 1.01
relative viability (LC-2-ad; first compound 0.4 µM): 1.17
relative viability (LC-2-ad; first compound 1.265 µM): 1
relative viability (LC-2-ad; first compound 4 µM): 0.952
relative viability (LU99A; first compound 0.04 µM): 1.19
relative viability (LU99A; first compound 0.1265 µM): 1.16
relative viability (LU99A; first compound 0.4 µM): 1.27
relative viability (LU99A; first compound 1.265 µM): 1.22
relative viability (LU99A; first compound 4 µM): 1.19
relative viability (NCI-H1651; first compound 0.04 µM): 0.906
relative viability (NCI-H1651; first compound 0.1265 µM): 0.917
relative viability (NCI-H1651; first compound 0.4 µM): 0.959
relative viability (NCI-H1651; first compound 1.265 µM): 0.941
relative viability (NCI-H1651; first compound 4 µM): 0.969
relative viability (NCI-H1915; first compound 0.04 µM): 0.949
relative viability (NCI-H1915; first compound 0.1265 µM): 0.923
relative viability (NCI-H1915; first compound 0.4 µM): 0.993
relative viability (NCI-H1915; first compound 1.265 µM): 0.936
relative viability (NCI-H1915; first compound 4 µM): 0.987
relative viability (NCI-H1993; first compound 0.04 µM): 1.11
relative viability (NCI-H1993; first compound 0.1265 µM): 1.05
relative viability (NCI-H1993; first compound 0.4 µM): 1.02
relative viability (NCI-H1993; first compound 1.265 µM): 1.01
relative viability (NCI-H1993; first compound 4 µM): 0.869
relative viability (NCI-H2009; first compound 0.04 µM): 1.19
relative viability (NCI-H2009; first compound 0.1265 µM): 0.891
relative viability (NCI-H2009; first compound 0.4 µM): 1.14
relative viability (NCI-H2009; first compound 1.265 µM): 0.949
relative viability (NCI-H2009; first compound 4 µM): 0.984
relative viability (NCI-H2085; first compound 0.04 µM): 1.07
relative viability (NCI-H2085; first compound 0.1265 µM): 0.952
relative viability (NCI-H2085; first compound 0.4 µM): 1.08
relative viability (NCI-H2085; first compound 1.265 µM): 0.995
relative viability (NCI-H2085; first compound 4 µM): 0.947
relative viability (NCI-H2126; first compound 0.04 µM): 1.06
relative viability (NCI-H2126; first compound 0.1265 µM): 1.14
relative viability (NCI-H2126; first compound 0.4 µM): 1.17
relative viability (NCI-H2126; first compound 1.265 µM): 1.1
relative viability (NCI-H2126; first compound 4 µM): 1.13
relative viability (NCI-H2347; first compound 0.1265 µM): 0.898
relative viability (NCI-H2347; first compound 0.4 µM): 0.855
relative viability (NCI-H2347; first compound 1.265 µM): 0.973
relative viability (NCI-H2347; first compound 4 µM): 0.865
relative viability (NCI-H460; first compound 0.04 µM): 1.07
relative viability (NCI-H460; first compound 0.1265 µM): 0.919
relative viability (NCI-H460; first compound 0.4 µM): 1.03
relative viability (NCI-H460; first compound 1.265 µM): 1.03
relative viability (NCI-H460; first compound 4 µM): 1.02
relative viability (NCI-H650; first compound 0.04 µM): 0.891
relative viability (NCI-H650; first compound 0.1265 µM): 0.736
relative viability (NCI-H650; first compound 1.265 µM): 0.6
relative viability (NCI-H650; first compound 4 µM): 0.812
relative viability (NCI-H838; first compound 0.04 µM): 0.973
relative viability (NCI-H838; first compound 0.1265 µM): 0.99
relative viability (NCI-H838; first compound 0.4 µM): 0.805
relative viability (NCI-H838; first compound 1.265 µM): 0.68
relative viability (NCI-H838; first compound 4 µM): 0.798
relative viability (PC-14; first compound 0.04 µM): 1.02
relative viability (PC-14; first compound 0.1265 µM): 0.849
relative viability (PC-14; first compound 0.4 µM): 0.969
relative viability (PC-14; first compound 1.265 µM): 0.852
relative viability (PC-14; first compound 4 µM): 0.828
relative viability (SW 1573; first compound 0.04 µM): 1.15
relative viability (SW 1573; first compound 0.1265 µM): 0.96
relative viability (SW 1573; first compound 0.4 µM): 1.21
relative viability (SW 1573; first compound 1.265 µM): 0.972
relative viability (SW 1573; first compound 4 µM): 1.09
relative viability (UMC-11; first compound 0.04 µM): 0.802
relative viability (UMC-11; first compound 0.1265 µM): 0.771
relative viability (UMC-11; first compound 0.4 µM): 0.709
relative viability (UMC-11; first compound 1.265 µM): 0.717
relative viability (UMC-11; first compound 4 µM): 0.688

CC(C)Oc1cc(Nc2nc(N[C@@H](C)c3ccc(F)cn3)ncc2Cl)n[nH]1 [AZ23] + CC(C)C[C@H](NC(=O)[C@H](Cc1ccccc1)NC(=O)c1cnccn1)B(O)O [Bortezomib] (partner 0.002 µM)
relative viability (ABC-1; first compound 0.01 µM): 0.29
relative viability (ABC-1; first compound 0.03162 µM): 0.269
relative viability (ABC-1; first compound 0.3162 µM): 0.255
relative viability (COR-L23; first compound 0.01 µM): 0.921
relative viability (COR-L23; first compound 0.03162 µM): 1.27
relative viability (COR-L23; first compound 0.3162 µM): 1.04
relative viability (EPLC-272H; first compound 0.01 µM): 0.942
relative viability (EPLC-272H; first compound 0.03162 µM): 1.02
relative viability (HARA; first compound 0.01 µM): 1.04
relative viability (HARA; first compound 0.03162 µM): 1.1
relative viability (HARA; first compound 0.3162 µM): 1.27
relative viability (HCC-15; first compound 0.01 µM): 1.38
relative viability (HCC-15; first compound 0.03162 µM): 1.09
relative viability (HCC-15; first compound 0.3162 µM): 1.16
relative viability (HCC-78; first compound 0.01 µM): 0.395
relative viability (HCC-78; first compound 0.03162 µM): 0.507
relative viability (HCC-78; first compound 0.3162 µM): 0.335
relative viability (LC-2-ad; first compound 0.01 µM): 1.16
relative viability (LC-2-ad; first compound 0.03162 µM): 1.2
relative viability (LC-2-ad; first compound 0.3162 µM): 1.01
relative viability (LU99A; first compound 0.01 µM): 1.13
relative viability (LU99A; first compound 0.03162 µM): 1.2
relative viability (LU99A; first compound 0.3162 µM): 1.13
relative viability (NCI-H1651; first compound 0.01 µM): 0.957
relative viability (NCI-H1651; first compound 0.03162 µM): 1.02
relative viability (NCI-H1651; first compound 0.3162 µM): 1.01
relative viability (NCI-H1915; first compound 0.01 µM): 1.26
relative viability (NCI-H1915; first compound 0.03162 µM): 1.09
relative viability (NCI-H1915; first compound 0.3162 µM): 1.05
relative viability (NCI-H1993; first compound 0.01 µM): 0.911
relative viability (NCI-H1993; first compound 0.3162 µM): 1.16
relative viability (NCI-H2009; first compound 0.01 µM): 1.1
relative viability (NCI-H2009; first compound 0.03162 µM): 1.06
relative viability (NCI-H2009; first compound 0.3162 µM): 1.21
relative viability (NCI-H2085; first compound 0.01 µM): 0.991
relative viability (NCI-H2085; first compound 0.03162 µM): 1.03
relative viability (NCI-H2085; first compound 0.3162 µM): 1.01
relative viability (NCI-H2126; first compound 0.01 µM): 1.18
relative viability (NCI-H2126; first compound 0.03162 µM): 1.18
relative viability (NCI-H2126; first compound 0.3162 µM): 1.09
relative viability (NCI-H2347; first compound 0.01 µM): 0.927
relative viability (NCI-H2347; first compound 0.03162 µM): 1.04
relative viability (NCI-H2347; first compound 0.3162 µM): 0.979
relative viability (NCI-H460; first compound 0.01 µM): 0.915
relative viability (NCI-H460; first compound 0.03162 µM): 1.47
relative viability (NCI-H460; first compound 0.3162 µM): 1.38
relative viability (NCI-H650; first compound 0.01 µM): 0.71
relative viability (NCI-H650; first compound 0.03162 µM): 0.946
relative viability (NCI-H650; first compound 0.3162 µM): 0.84
relative viability (NCI-H838; first compound 0.01 µM): 0.772
relative viability (NCI-H838; first compound 0.03162 µM): 0.702
relative viability (NCI-H838; first compound 0.3162 µM): 0.757
relative viability (PC-14; first compound 0.01 µM): 0.774
relative viability (PC-14; first compound 0.03162 µM): 1.04
relative viability (PC-14; first compound 0.3162 µM): 0.917
relative viability (SW 1573; first compound 0.01 µM): 1.24
relative viability (SW 1573; first compound 0.03162 µM): 1.2
relative viability (SW 1573; first compound 0.3162 µM): 1
relative viability (UMC-11; first compound 0.01 µM): 0.766
relative viability (UMC-11; first compound 0.03162 µM): 0.86
relative viability (UMC-11; first compound 0.3162 µM): 0.808
